Test results taken from patent US10844032B2, “Substituted benzofuran, benzothiophene and indole Mcl-1 inhibitors” (Vanderbilt University, priority 2012, dated 2020).

Target: recombinant Mcl-1 (residues 172-327) (Homo sapiens (Human), UniProt Q07820)
Assay: Bak peptide fluorescence polarization anisotropy competition assay, Mcl-1
Format: binding
Details: Table 2, Ki range; FITC-Bak peptide 10 nM, Mcl-1 14 nM; read-out: Ki for inhibition of Mcl-1

Chain of recombinant Mcl-1 (residues 172-327) (Q07820 172-327): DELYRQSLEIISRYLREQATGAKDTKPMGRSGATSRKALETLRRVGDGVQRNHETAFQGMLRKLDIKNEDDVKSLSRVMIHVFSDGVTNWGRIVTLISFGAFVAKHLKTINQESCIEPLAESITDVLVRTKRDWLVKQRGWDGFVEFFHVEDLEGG

Ki [nM] | Compound
≤ 100 | Cc1cc(OCCCc2c(C(=O)NS(=O)(=O)c3ccccc3)[nH]c3c(-c4cnn(C)c4)cccc23)cc(C)c1Cl [Example 123, 3-(3-(4-chloro-3,5-dimethylphenoxy)propyl)-7-(1-methyl-1H-pyrazol-4-yl)-N-(phenylsulfonyl)-1H-indole-2-carboxamide]
≤ 100 | Cc1cc(OCCCc2c(C(=O)NS(=O)(=O)c3ccccc3)[nH]c3c(-c4c(C)noc4C)cccc23)cc(C)c1Cl [Example 88, 3-(3-(4-chloro-3,5-dimethylphenoxy)propyl)-7-(3,5-dimethylisoxazol-4-yl)-N-(phenylsulfonyl)-1H-indole-2-carboxamide]
≤ 100 | Cc1cc(OCCCc2c(C(=O)NS(=O)(=O)c3ccc(C(=O)O)o3)[nH]c3cc(Cl)ccc23)cc(C)c1Cl [Example 261]
≤ 100 | Cc1cc(OCCCc2c(C(=O)NS(=O)(=O)CCNC(=O)[C@@H]3Cc4ccccc4N3)[nH]c3cc(Cl)ccc23)cc(C)c1Cl [Example 237, (S)-6-chloro-3-(3-(4-chloro-3,5-dimethylphenoxy)propyl)-N-((2-(indoline-2-carboxamido)ethyl)sulfonyl)-1H-indole-2-carboxamide]
≤ 100 | Cc1cc(OCCCc2c(C(=O)NS(=O)(=O)CCNC(=O)c3cc(C)n(-c4ccc(F)cc4)c3C)[nH]c3ccccc23)cc(C)c1Cl [Example 279, 3-(3-(4-chloro-3,5-dimethylphenoxy)propyl)-N-((2-(1-(4-fluorophenyl)-2,5-dimethyl-1H-pyrrole-3-carboxamido)ethyl)sulfonyl)-1H-indole-2-carboxamide]

Same assay, conditions: read-out: Ki for inhibition of Mcl-1

Ki [nM] | Compound
1000 to 9990 | Cc1cc(OCCCc2c(C(=O)NS(=O)(=O)CCNC(=O)c3c[nH]cn3)[nH]c3ccccc23)cc(C)c1Cl [Example 186, N-((2-(1H-imidazole-4-carboxamido)ethyl)sulfonyl)-3-(3-(4-chloro-3,5-dimethylphenoxy)propyl)-1H-indole-2-carboxamide]
101 to 299 | Cc1cc(OCCCc2c(C(=O)NS(=O)(=O)CCNC(=O)c3ccc4c(ccn4C)c3)[nH]c3cc(Cl)ccc23)cc(C)c1Cl [Example 236, 6-chloro-3-(3-(4-chloro-3,5-dimethylphenoxy)propyl)-N-((2-(1-methyl-1H-indole-5-carboxamido)ethyl)sulfonyl)-1H-indole-2-carboxamide]
501 to 999 | O=C(O)c1sc2c(-c3ccccc3)cccc2c1CCCOc1cccc2ccccc12 [Example 11, 3-(3-(naphthalen-1-yloxy)propyl)-7-phenylbenzo[b]thiophene-2-carboxylic acid]
101 to 299 | Cc1ccccc1-c1cccc2c(CCCOc3cccc4ccccc34)c(C(=O)O)sc12 [Example 10, 3-(3-(naphthalen-1-yloxy)propyl)-7-(o-tolyl)benzo[b]thiophene-2-carboxylic acid]
501 to 999 | Cc1cc(OCCCc2c(C(=O)NS(=O)(=O)CCN3C(=O)c4ccccc4C3=O)[nH]c3ccccc23)cc(C)c1Cl [Example 197, 3-(3-(4-chloro-3,5-dimethylphenoxy)propyl)-N-((2-(1,3-dioxoisoindolin-2-yl)ethyl)sulfonyl)-1H-indole-2-carboxamide]
1000 to 9990 | O=C(NS(=O)(=O)Cc1ccccc1)c1sc2ccccc2c1CCCOc1cccc2ccccc12 [Example 62, N-(Benzylsulfonyl)-3-(3-(naphthalen-1-yloxy)propyl)benzo[b]thiophene-2-carboxamide]
101 to 299 | CC(=O)N1CCN(c2ccc(OCc3nn(C)c(C)c3-c3cccc4c(CCCOc5cc(C)c(Cl)c(C)c5)c(C(=O)NS(C)(=O)=O)n(Cc5cccnc5)c34)cc2)CC1 [Example 125, 7-(3-((4-(4-acetylpiperazin-1-yl)phenoxy)methyl)-1,5-dimethyl-1H-pyrazol-4-yl)-3-(3-(4-chloro-3,5-dimethylphenoxy)propyl)-N-(methylsulfonyl)-1-(pyridin-3-ylmethyl)-1H-indole-2-carboxamide]
501 to 999 | CS(=O)(=O)NC(=O)c1[nH]c2ccccc2c1CCCOc1ccc(Cl)c2ccccc12 [Example 39, 3-(3-((4-chloronaphthalen-1-yl)oxy)propyl)-N-(methylsulfonyl)-1H-indole-2-carboxamide]
1000 to 9990 | CCc1cc(OCCCc2c(C(=O)NS(C)(=O)=O)[nH]c3ccccc23)ccc1Cl [Example 44, 3-(3-(4-chloro-3-ethylphenoxy)propyl)-N-(methylsulfonyl)-1H-indole-2-carboxamide]
101 to 299 | COC(=O)c1ccc(S(=O)(=O)NC(=O)c2[nH]c3cc(Cl)ccc3c2CCCOc2cc(C)c(Cl)c(C)c2)n1C [Example 265, methyl 5-(N-(6-chloro-3-(3-(4-chloro-3,5-dimethylphenoxy)propyl)-1H-indole-2-carbonyl)sulfamoyl)-1-methyl-1H-pyrrole-2-carboxylate]
1000 to 9990 | Cc1cc(OCCCc2c(C(=O)NS(=O)(=O)CCNC(=O)c3cccnc3)[nH]c3ccccc23)cc(C)c1Cl [Example 155, 3-(3-(4-chloro-3,5-dimethylphenoxy)propyl)-N-((2-(nicotinamido)ethyl)sulfonyl)-1H-indole-2-carboxamide]
301 to 500 | Cc1occc1C(=O)NCCS(=O)(=O)NC(=O)c1[nH]c2cc(Cl)ccc2c1CCCOc1cccc2ccccc12 [Example 229, 6-chloro-N-((2-(2-methylfuran-3-carboxamido)ethyl)sulfonyl)-3-(3-(naphthalen-1-yloxy)propyl)-1H-indole-2-carboxamide]
501 to 999 | Cc1cc(OCCCc2c(C(=O)NS(C)(=O)=O)[nH]c3ccc(Cl)cc23)cc(C)c1Cl [Example 110, 5-chloro-3-(3-(4-chloro-3,5-dimethylphenoxy)propyl)-N-(methylsulfonyl)-1H-indole-2-carboxamide]
101 to 299 | CCc1ccc(CC(=O)NCCS(=O)(=O)NC(=O)c2[nH]c3ccccc3c2CCCOc2cc(C)c(Cl)c(C)c2)cc1 [Example 174, 3-(3-(4-chloro-3,5-dimethylphenoxy)propyl)-N-((2-(2-(4-ethylphenyl)acetamido)ethyl)sulfonyl)-1H-indole-2-carboxamide]
101 to 299 | Cc1cc(OCCCc2c(C(=O)NS(=O)(=O)CCNC(=O)c3cccn3Cc3ccccc3)n(Cc3ccccc3)c3cc(Cl)ccc23)cc(C)c1Cl [Example 278, 1-benzyl-N-((2-(1-benzyl-1H-pyrrole-2-carboxamido)ethyl)sulfonyl)-6-chloro-3-(3-(4-chloro-3,5-dimethylphenoxy)propyl)-1H-indole-2-carboxamide]
101 to 299 | Cc1cc(OCCCc2c(C(=O)NS(=O)(=O)CCNC(=O)[C@@H]3Cc4ccccc4N3C)[nH]c3cc(Cl)ccc23)cc(C)c1Cl [Example 238, (S)-6-chloro-3-(3-(4-chloro-3,5-dimethylphenoxy)propyl)-N-((2-(1-methylindoline-2-carboxamido)ethyl)sulfonyl)-1H-indole-2-carboxamide]
301 to 500 | Cc1cc(OCCCc2c(C(=O)NS(C)(=O)=O)[nH]c3cc(C(F)(F)F)ccc23)ccc1Cl [Example 77, 3-(3-(4-chloro-3-methylphenoxy)propyl)-N-(methylsulfonyl)-6-(trifluoromethyl)-1H-indole-2-carboxamide]
101 to 299 | Cc1cc(OCCCc2c(C(=O)NS(=O)(=O)C3CCN(C(=O)CCc4ccccc4)CC3)[nH]c3cc(Cl)ccc23)cc(C)c1Cl [Example 310, 6-chloro-3-(3-(4-chloro-3,5-dimethylphenoxy)propyl)-N-((1-(3-phenylpropanoyl)piperidin-4-yl)sulfonyl)-1H-indole-2-carboxamide]
1000 to 9990 | O=C(O)c1sc2cc(-c3ccccc3)ccc2c1CCCOc1cccc2ccccc12 [Example 13, 3-(3-(naphthalen-1-yloxy)propyl)-6-phenylbenzo[b]thiophene-2-carboxylic acid]
301 to 500 | Cc1cc(OCCCc2c(C(=O)NS(=O)(=O)CCCNC(=O)CCc3cc(-c4ccccc4)n[nH]3)[nH]c3cc(Cl)ccc23)cc(C)c1Cl [Example 257, 6-chloro-3-(3-(4-chloro-3,5-dimethylphenoxy)propyl)-N-((3-(3-(3-phenyl-1H-pyrazol-5-yl)propanamido)propyl)sulfonyl)-1H-indole-2-carboxamide]
501 to 999 | Cc1ccoc1C(=O)NCCS(=O)(=O)NC(=O)c1[nH]c2ccccc2c1CCCOc1cc(C)c(Cl)c(C)c1 [Example 156]
1000 to 9990 | O=C(O)c1sc2ccccc2c1CCc1cccc2ccccc12 [Example 64, 3-(2-(naphthalen-1-yl)ethyl)benzo[b]thiophene-2-carboxylic acid]
301 to 500 | CS(=O)(=O)NC(=O)c1[nH]c2cc(Br)ccc2c1CCCOc1cccc2ccccc12 [Example 114, 6-bromo-N-(methylsulfonyl)-3-(3-(naphthalen-1-yloxy)propyl)-1H-indole-2-carboxamide]
301 to 500 | O=C(NCCS(=O)(=O)NC(=O)c1[nH]c2cc(Cl)ccc2c1CCCOc1cccc2ccccc12)c1ccc2cc[nH]c2c1 [Example 239, N-((2-(1H-indole-6-carboxamido)ethyl)sulfonyl)-6-chloro-3-(3-(naphthalen-1-yloxy)propyl)-1H-indole-2-carboxamide]
301 to 500 | CS(=O)(=O)NC(=O)c1[nH]c2cccc(C(F)(F)F)c2c1CCCOc1cccc2ccccc12 [Example 81, N-(methylsulfonyl)-3-(3-(naphthalen-1-yloxy)propyl)-4-(trifluoromethyl)-1H-indole-2-carboxamide]
301 to 500 | Cc1cc(OCCCc2c(C(=O)NS(C)(=O)=O)[nH]c3cc(C(F)(F)F)ccc23)cc(C)c1Cl [Example 78, 3-(3-(4-chloro-3,5-dimethylphenoxy)propyl)-N-(methylsulfonyl)-6-(trifluoromethyl)-1H-indole-2-carboxamide]
1000 to 9990 | Cc1cc(OCCCc2c(C(=O)NS(=O)(=O)CCNC(=O)c3ccncc3)[nH]c3ccccc23)cc(C)c1Cl [Example 153, 3-(3-(4-chloro-3,5-dimethylphenoxy)propyl)-N-((2-(isonicotinamido)ethyl)sulfonyl)-1H-indole-2-carboxamide]
501 to 999 | Cc1cc(OCCCc2c(C(=O)NS(=O)(=O)CCNC(=O)c3cc(Br)no3)[nH]c3ccccc23)cc(C)c1Cl [Example 185, 3-bromo-N-(2-(N-(3-(3-(4-chloro-3,5-dimethylphenoxy)propyl)-1H-indole-2-carbonyl)sulfamoyl)ethyl)isoxazole-5-carboxamide]
